From PubChem BioAssay AID1996 come the findings set out here.

SMILES strings stand for the structures. Converted amounts (≈) assume the structure as drawn.

The conditions of the data set: buffer; pH 7.4; 200.0 µM.
Turning to `O=C(O)CCC(=O)N1CCN(c2ncccc2C(F)(F)F)CC1`, the solubility (kinetic) amounted to 44.5 µg/mL (≈ 134 µM). `O=C(COC(=O)c1ccc(Cl)nc1)NCc1cccs1` registered a kinetic solubility of 25.2 µg/mL (≈ 81.1 µM). With `N/C(=N\OC(=O)c1cc([N+](=O)[O-])ccc1Cl)c1ccccn1`, the kinetic solubility came out at 11.2 µg/mL (≈ 34.9 µM). In turn, `Cn1cc(CCCC(=O)NCc2ccc(F)cc2)c2ccccc21` came in with a kinetic solubility of 22.7 µg/mL (≈ 70 µM). The result for `COC(=O)C1=C(C)N(c2ccc(OC)cc2)C(C)=C(C(=O)OC)C1c1ccccc1` reads 1 µg/mL (≈ 2.45 µM). The value for `CC(=O)NCCc1nc2ccccc2n1CCOc1ccccc1C` was above 50.6 µg/mL; that for `CCOC(=O)c1c(SC)[nH]c2c(Cl)cccc2c1=O` was 1.4 µg/mL (≈ 4.7 µM).

`Cc1ccc(C)c(OCCn2ccnc2)c1`: the kinetic solubility was determined as 24.7 µg/mL (≈ 114 µM). The result for `Cc1ccccc1NC(=O)C1CC(=O)OC12CCOC(C)(C)C2` (stereo not drawn) reads above 47.6 µg/mL. The result for `CC(C)c1nc2cc(C(=O)NC(C)c3cnn(C)c3)ccc2o1` (stereo not drawn) reads above 46.9 µg/mL; that for `Cc1cc2ccccn2c1C(=O)c1cccc([N+](=O)[O-])c1`, 0.3 µg/mL (≈ 1.07 µM); that for `Cc1ccc(C(=O)N2c3ccccc3OCC2C)cc1` (stereo not drawn), 37 µg/mL (≈ 138 µM). As to `Cc1ccc(CNC(=S)NCc2ccncc2)cc1`, the kinetic solubility amounted to 39.7 µg/mL (≈ 146 µM). The result for `CCC(C)c1ccc(NC(=S)NC(C)C2CCCO2)cc1` (stereo not drawn) reads 31.2 µg/mL (≈ 102 µM); that for `CCOC(=O)c1ccc(Nc2ncnc3ccccc23)cc1.Cl`, 1.7 µg/mL. For `COC(=O)c1sc(SC)c2c1CC(C)(C)C/C2=N/O`, the kinetic solubility is below 0.6 µg/mL. The value for `CCCCOc1ccc(C(=O)OCC(=O)c2c(N)n(C)c(=O)n(C)c2=O)cc1` was 4.4 µg/mL (≈ 11.3 µM); that for `CN1C2CCC1CC(NS(=O)(=O)c1cccc(C(F)(F)F)c1)C2` (stereo not drawn) was 48.3 µg/mL (≈ 139 µM).

As for `CC1CCN(c2ccc3nnc(CCC(=O)NC(C)C)n3n2)CC1`, the kinetic solubility is above 49.6 µg/mL.

On to `CC(NC(=O)CCC(=O)NCc1ccc(F)cc1)c1ccccc1` (stereo not drawn), for which the kinetic solubility is above 49.3 µg/mL. The molecule `CN1CCN(c2nc(-c3ccc(Cl)cc3)cc(=O)[nH]2)CC1` gave a kinetic solubility of 39.8 µg/mL (≈ 131 µM).

`Cc1ccc(Oc2ncccc2NC(=O)CCCC(=O)O)c2c1CCC2` registered a solubility (kinetic) above 53.2 µg/mL. Regarding `Cn1c(N)c(C(=O)COC(=O)/C=C/c2cccc(Cl)c2)c(=O)n(C)c1=O`, the solubility (kinetic) was 3.3 µg/mL (≈ 8.74 µM).

Regarding `FC(F)(F)c1ccc(-n2cn[nH]c2=S)cc1`, the kinetic solubility is above 36.8 µg/mL. The value for `N#C/C(=C\c1ccc[nH]1)C(=O)NCC1CCCO1` (stereo not drawn) was above 36.8 µg/mL; that for `NC1=NC(=O)/C(=C/c2ccccc2OCC(=O)Nc2ccc(F)cc2)S1` was 3.8 µg/mL (≈ 10.2 µM); that for `O=C(COC(=O)c1ccc(S(=O)(=O)NCc2ccco2)cc1)NCc1ccccc1` was 7.4 µg/mL (≈ 17.3 µM). Take `Cc1ccc(C(=O)NCC(=O)Nc2ncccc2C)s1`: the kinetic solubility is above 43.4 µg/mL. The value for `NS(=O)(=O)c1ccc(C(=O)Nc2ccc(-c3nc4cccnc4s3)cc2)cc1` was 2.5 µg/mL (≈ 6.09 µM). The value for `CCCC(=O)Nc1ccc(OCC(O)CNC(C)C)c(C(C)=O)c1.Cl` (stereo not drawn) was above 55.9 µg/mL; that for `CC(=O)N1CCN(c2ccc(S(C)(=O)=O)cc2[N+](=O)[O-])CC1` was above 49.1 µg/mL. The value for `CCCOP(=O)(c1ccc(N(C)C)cc1)C(O)c1ccc(Cl)cc1` (stereo not drawn) was 18.5 µg/mL (≈ 50.3 µM); that for `Cc1noc(C)c1C(=O)NCCc1c(C)[nH]c2ccccc12` was 41.5 µg/mL (≈ 140 µM); that for `CC(C)(C)N/C=C(\C#N)S(=O)(=O)c1ccc(Br)cc1` was 7.7 µg/mL (≈ 22.4 µM).

Molecule `COc1cccc(NC(=O)N2C3CCCC2CC(NC(=O)C2CC2)C3)c1` (stereo not drawn) had a solubility (kinetic) of 44.4 µg/mL (≈ 124 µM).

As to `CCCCOc1cc(CC2CNC(=O)N2)ccc1OC` (stereo not drawn), the solubility (kinetic) was above 41.8 µg/mL. The value for `O=C(CSCc1ccc(Cl)cc1)Nc1cccc(C(=O)O)c1` was above 50.4 µg/mL. The result for `CC(=O)c1ccc(N2CCN(C(=S)NCc3ccco3)CC2)cc1` reads 45.4 µg/mL (≈ 132 µM).

In turn, `Cc1cccc(NC(=O)C2COc3ccccc3O2)n1` (stereo not drawn) returned a solubility (kinetic) of 35.9 µg/mL (≈ 133 µM). The result for `O=c1oc2ccccc2nc1/C=C(\O)c1ccc(Br)cc1` reads 19 µg/mL (≈ 55.2 µM); that for `COc1ccccc1C/C(N)=N/OC(=O)c1cccs1`, 42.8 µg/mL (≈ 147 µM); that for `Cc1ccc(NC(=O)N(C)c2ccccc2)cc1`, above 36 µg/mL. For the molecule `O=C(CSc1nc2ccccc2c(=O)[nH]1)Nc1ccc([N+](=O)[O-])cc1`, the kinetic solubility was 5 µg/mL (≈ 14 µM).

In turn, `COc1ccc(C(=O)N2CCCC(Nc3ccc(C)c(C)c3)C2)cc1` (stereo not drawn) had a kinetic solubility of 40.5 µg/mL (≈ 120 µM).

The molecule `Cc1ccc(NC(=O)COC(=O)Cc2ccc(Br)cc2)cc1S(=O)(=O)N1CCOCC1` came in with a solubility (kinetic) of 12.4 µg/mL (≈ 24.2 µM). On to `O=S(=O)(c1ccc(Cl)s1)N1CCNCC1`, for which the solubility (kinetic) is above 40 µg/mL. The result for `COc1ccccc1NS(=O)(=O)c1cn(C)cn1` reads above 40.1 µg/mL; that for `CO/N=C(\c1ccccc1)c1cccnc1`, 23.2 µg/mL (≈ 109 µM). The result for `CC(C)Cc1ccc(C(C)NC(=O)c2ccc(=O)[nH]c2)cc1` (stereo not drawn) reads 10 µg/mL (≈ 33.5 µM); that for `CCCCc1ncc(CN2CCN(Cc3ccc(C)cc3)C(CCO)C2)[nH]1` (stereo not drawn), 49.1 µg/mL (≈ 133 µM). On to `CC1CCCN(C(=O)CN2C(=O)C(C)Oc3ccccc32)C1` (stereo not drawn), for which the solubility (kinetic) was above 45.4 µg/mL. The result for `CCN(CC)CCNC(=O)c1ccc(NC(=O)Cc2ccsc2)cc1` reads 49.4 µg/mL (≈ 137 µM); that for `CC(NC(=O)c1ccccc1Br)C1CC2CCC1C2` (stereo not drawn), 20.6 µg/mL (≈ 63.9 µM); that for `COc1ccc(S(=O)(=O)NC(C)C(=O)N2CCCC2)cc1C` (stereo not drawn), 41.9 µg/mL (≈ 128 µM). The result for `Cl.Clc1ccc2sc(C3CCNCC3)nc2c1` reads 43.3 µg/mL; that for `CC(C(=O)NC1CCCC1)N1C(=O)c2cccc3cccc1c23` (stereo not drawn), above 46.3 µg/mL. Take `O=C(COC(=O)CNC(=O)c1ccccc1F)NC1CC1`: the kinetic solubility was above 44.1 µg/mL. The value for `COc1ccc(-c2cc(C(=O)N3CCCC3)no2)cc1OC` was 43.8 µg/mL (≈ 145 µM). Regarding `C/C(=N\NC(=O)c1ccncc1)c1cccs1`, the kinetic solubility is above 36.8 µg/mL. As for `Cc1ccc(N2CC(C(=O)NC3CC3)CC2=O)cc1` (stereo not drawn), the solubility (kinetic) was above 38.7 µg/mL. `Cc1c(C(=O)NCCCn2ccnc2)oc2ccccc12` showed a kinetic solubility of 34.1 µg/mL (≈ 120 µM). In turn, `COc1ccccc1C/C(N)=N/OC(=O)COc1cccc(C)c1C` returned a kinetic solubility of 8.2 µg/mL (≈ 23.9 µM). The value for `COc1ccc(N2C(=O)c3cccc4cccc(c34)C2=O)cc1` was below 0.6 µg/mL. For the molecule `O=C(Nc1nc2ccccc2[nH]1)c1ccc(Br)o1`, the solubility (kinetic) was found to be 15.5 µg/mL (≈ 50.6 µM). In turn, `CC(CN1CCN(C)CC1)OC(=O)c1ccc(F)cc1.Cl` (stereo not drawn) returned a kinetic solubility above 47.5 µg/mL. The value for `O=C(NCc1ccc(F)cc1)c1cccs1` was 29.9 µg/mL (≈ 127 µM). In turn, `CSc1nc(C)c(Cc2c(F)cccc2Cl)c(=O)[nH]1` displayed a solubility (kinetic) of 1 µg/mL (≈ 3.35 µM). In turn, `CN(C)c1ccc(NC(=O)C(=O)NCCOc2ccccc2)cc1` registered a kinetic solubility of 0.7 µg/mL (≈ 2.14 µM). The value for `COC(=O)CN1C(=O)N/C(=C/c2cc3c(cc2OC)OCO3)C1=O` was 6.3 µg/mL (≈ 18.8 µM). The result for `COc1ccccc1NC(=O)C1CCOC1=O` (stereo not drawn) reads above 35.3 µg/mL. With `COc1cccc(CNC(=O)c2ccccc2-c2ccccc2)c1`, the solubility (kinetic) worked out at 2.1 µg/mL (≈ 6.62 µM). `S=C(Nc1ccc(Br)cc1)N1CCN(c2ccccn2)CC1` had a kinetic solubility of 2.1 µg/mL (≈ 5.57 µM).

The molecule `O=C(COc1ccc([N+](=O)[O-])cc1)Nc1ccccc1C(=O)NC1CC1` had a solubility (kinetic) of 1.3 µg/mL (≈ 3.66 µM). `O=C(O)Cc1c[nH]c2ccccc12` came in with a solubility (kinetic) above 26.3 µg/mL. As for `CCc1ccc(OCC(=O)O/N=C(\N)c2ccncc2)cc1`, the solubility (kinetic) is 7.1 µg/mL (≈ 23.7 µM). With `O=Cc1c(Nc2ccccc2Cl)nc2ccccn2c1=O`, the kinetic solubility is below 0.2 µg/mL. Regarding `COc1ccc(CC(=O)Nc2ccccc2N2CCCCC2)cc1OC`, the solubility (kinetic) was found to be 30.7 µg/mL (≈ 86.6 µM). The value for `Cc1ccc(C)c(NC(=O)CC2Oc3ccccc3NC2=O)c1` (stereo not drawn) was 1.1 µg/mL (≈ 3.54 µM). The value for `Fc1ccc(CNC(=S)NCc2ccccc2)cc1` was 11 µg/mL (≈ 40.1 µM). The result for `CNC(=S)Nc1cc2oc3ccccc3c2cc1OC` reads 33.7 µg/mL (≈ 118 µM). `COC(=O)c1[nH]c2ccccc2c1NC(=O)C(C)N1CCOCC1` (stereo not drawn) showed a kinetic solubility above 49.7 µg/mL. The value for `O=C(c1ccsc1)N1CCCC(Nc2ccc(F)c(F)c2)C1` (stereo not drawn) was 44.5 µg/mL (≈ 138 µM); that for `O=C(Nc1ccccc1)Nc1cccc(-c2cn3cccnc3n2)c1` was 1 µg/mL (≈ 3.04 µM); that for `O=C(N/N=C/c1ccc(N2CCOCC2)cc1)c1ccncc1` was above 46.6 µg/mL. For the molecule `Cc1ccc(C)c(NC(=O)CN2C(=O)NC(CCc3ccccc3)C2=O)c1` (stereo not drawn), the kinetic solubility is 2.5 µg/mL (≈ 6.84 µM).

As for `Cc1nc(-c2ccccc2)sc1C(=O)NN`, the solubility (kinetic) was above 35 µg/mL. The result for `CC(C)CNC(=O)COC(=O)c1c2c(nc3ccccc13)CCC2` reads above 49 µg/mL; that for `COc1ccc(CNC(=O)c2cc3c(=O)[nH]c4ccccc4c3n2C)cc1`, below 0.3 µg/mL; that for `Nc1nc(Nc2ccc(Cl)cc2)c(NC=O)c(=O)[nH]1`, above 42 µg/mL.

For the molecule `Cc1cccc(-c2nc(C)cc(=O)[nH]2)c1`, the kinetic solubility was above 30 µg/mL. The result for `CC1(C)Cc2c(c(-c3ccccc3)nc3sc4c(=O)[nH]c(=S)[nH]c4c23)CO1` reads 10.5 µg/mL (≈ 26.5 µM); that for `COc1cc(N2C(=O)CC3(CCCC3)CC2=O)cc(OC)c1OC`, 47.2 µg/mL (≈ 142 µM); that for `CC(=O)N1CCC(O)(c2ccc3c(c2)OCO3)CC1`, 37.1 µg/mL (≈ 141 µM).

Take `Cc1ccc(CNc2cc(C(=O)O)ccc2C)s1`: the solubility (kinetic) was above 39.2 µg/mL. The value for `COC(=O)c1nc(N)sc1C(C)C` was above 30 µg/mL; that for `COc1cc(-c2nc3ccccn3c2N)ccc1O` was above 38.3 µg/mL. The value for `CC(C)c1ccccc1-n1cc[nH]c1=S` was above 32.7 µg/mL; that for `COC(=O)CCCC(=O)N1CCC(CCC(=O)NC2CC2)CC1` was above 48.7 µg/mL. The value for `O=C(c1c[nH]c2ccccc12)N1CCN(Cc2ccccc2)CC1` was above 47.9 µg/mL; that for `CCOC(=O)n1c(=O)n(Cc2ccc(OC)cc2)c2ccccc21` was 29.5 µg/mL (≈ 90.4 µM); that for `CCOc1ccc(N2CC(C(=O)NC3=NCCS3)CC2=O)cc1` (stereo not drawn) was above 50 µg/mL. On to `CCOc1ccc(OCCCC(=O)N2CCN(S(=O)(=O)c3ccccc3C#N)CC2)cc1`, for which the solubility (kinetic) worked out at 27.2 µg/mL (≈ 59.4 µM). As for `CC(C)NC(=O)N1c2ccccc2Sc2ccccc21`, the kinetic solubility was 33.4 µg/mL (≈ 117 µM).
